Reference: patent publication US20240189289A1, “INHIBITORS OF EPHB3 SIGNALING” (The Brigham and Women`s Hospital, Inc., priority 2021, published 2024)
“Also recorded” adds a separate entry of the source.

Tests used:
[1] = tested on: NOD EAE; assay: Chronic progressive EAE in NOD mice (MOG35-55); assay type: in vivo, mouse
Description: EAE. […] EAE was assessed as follows: 0, no signs of disease; 1, loss of tone in the tail; 2, hind limb paresis; 3, hind limb paralysis; 4, tetraplegia; 5, moribund.
To further validate the potential of EphB3 kinase inhibition for the therapeutic modulation of CNS inflammation and neurodegeneration, a study was performed using non-obese diabetic (NOD) mouse model of chronic progressive EAE induced by immunization with MOG35-55, which recapitulated aspects of secondary progressive MS, including the progressive and irreversible accumulation of neurologic disability.

[2] = tested on: microglia; assay: Neonatal murine microglia stimulated with LPS: qPCR; assay type: cell-based, mouse; settings: induced by LPS stimulation
Description: RNA isolation, cDNA synthesis and qPCR. RNA was extracted from in vitro generated samples with RNeasy Mini kit (#74106, QIAGEN) and cDNA was prepared by using the High-Capacity cDNA Reverse Transcription Kit (#4368813, Life Technologies), both according to the manufacturer's protocol. Gene expression was measured by qPCR with Taqman Fast Universal PCR Master Mix (#4367846, Life Technologies). Data were analyzed by the ddCt method by normalizing the expression of each gene to GAPDH and HPRT for mouse and GAPDH for human and then to the control group. All probes are listed below. • Mouse: EphB3 Mm00802553_m1, Ccl2 Mm00441242_m1, Csf2 Mm01290062_m1, Nos2 Mm00440502_m1, Tnf Mm00443258 m1, Il1b Mm00434228_m1, 116 Mm00446190_m1, GAPDH Mm99999915_g1. • Human: CCL2 Hs00234140_m1, CSF2 Hs00929873 ml, NOS2 Hs01075529_m1, TNF • Hs00174128_m1, IL6 Hs00985639_m1, IL1b Hs01555410_m1, GAPDH Hs02758991_g1.

[3] = tested on: astrocytes; assay: TNFα production in astrocytes (AlphaLISA, astrocyte-microglia co-cultures); assay type: cell-based, mouse; settings: primary astrocytes
Description: AlphaLISA. Astrocyte-microglia co-cultures were seeded in 384 well plates pre coated with Poly-L-Lysine at a density of 10^4 cells/well. After 3 days, cells were preincubated with the corresponding compounds 30 minutes before LPS stimulation (0.5 ng/mL Invivogen #tlrl-3pelps) and supernatants were collected after 18 h of incubation. mTNFalpha kit (Perkin Elmer #AL505) was used to measure TNFα in the supernatants following the high sensitivity protocol according to manufacturer's instructions. Briefly, 2 μl of the supernatants or given standards were subsequently mixed with 5 μl of anti-TNFα acceptor beads, 30 minutes after biotinylated antibody anti-TNFα was added after 1 h SA-Donor beads were added and incubated 30 minutes. All incubations were performed at 23° C. in the dark. Fluorescence at 615 nm was then measured using an EnVision-Apha Reader (Perkin Elmer #2105-0010).

[4] = tested on: N2A neuronal cells; assay: Neurotoxicity assay of astrocyte-conditioned medium (LDH release); assay type: cell-based, mouse; settings: ACM from astrocytes pre-treated with compound, LDH release after 24 h
Description: Generation of astrocyte-conditioned medium (ACM). […] After 24 h, cells were extensively washed with 1×PBS, and incubated with fresh astrocyte complete medium for 48 h. Supernatants were spun down and kept at −80° C. until tested in migration and neurotoxicity assays.
Neurotoxicity Assay. N2A neuronal cells (#CCL-131, ATCC) were plated and pre-activated with 100 ng/mL mouse IFNγ (#485-MI-100; R&D Systems) for 24 h.
Thereafter, after extensive washing with 1×PBS, medium was replaced with ACM and after 24 h the supernatant was harvested for cytotoxicity evaluation by measuring LDH release with CytoTox 96 nonradioactive cytotoxicity assay kit (#G1780, Promega) following the manufacturer's protocol.

[5] = tested on: PI3K/AKT/mTOR signaling in astrocytes; assay: Western blot of PI3K/AKT/mTOR/NF-κB signaling in primary murine astrocytes; assay type: cell-based, mouse
Description: Mouse primary astrocyte cultures. […] The cell suspension was then cultured at 37° C. in humidified 5% CO2 on poly-L-Lysine (#P4707, Sigma-Aldrich) pre-coated cell culture flasks. Medium was replaced every 3-5 days. The cells reached confluence after 7-10 days. Microglia were separated by shaking the glia culture at 225 rpm at 37° C. for at least 3 h and washing extensively with 1×PBS. Astrocytes were detached by mild trypsinization with Trypsin-EDTA (0.05%) at 37° C. and plated. […] Both cell types were then cultured separately for downstream procedures. […] Finally, microglia and astrocytes of each condition where magnetically separated as before and lysed for downstream gene expression analysis.
SDS-PAGE and Western blot. […] Membranes were blocked in 10% skimmed milk (#M0841, Lab Scientific) in TBS-T (#IBB-180-2L, Boston BioProducts). Primary antibodies were incubated ON at 4° C. and secondary 30 minutes at RT.
HRP-conjugated blots were developed using the KwikQuant imaging system and KwikQuant western blot detection kit (#R1004 Kindle Biosciences).

[6] = Mouse liver microsome stability; assay type: in vitro ADME; settings: mouse liver microsomes; read-out: mouse liver microsome stability T1/2
[7] = tested on: astrocytes; assay: Mitochondrial ROS measurement (MitoSOX) in astrocytes; assay type: cell-based, mouse; settings: induced by stimulation with TNFα and IL-1β
Description: Mitochondrial ROS measurement. 50,000 astrocytes were seeded per well in 96-well black plates and rested for 2 days in complete medium, followed by activation or inhibitor pretreatment for 24 h. MitoSOX red (Thermo Fisher Scientific, #M36008) was used to stain for mitochondrial ROS for 10 min following the manual and the signal was detected on Infinite M1000 PRO Microplate Reader (Tecan). The fluorescent signal was normalized to cell number estimated using CyQUANT cell proliferation assay kit (Invitrogen, #C7026) first and then compared to control group for data analysis.

[8] = tested on: primary astrocytes; assay: Seahorse Mito Stress test (oxygen consumption) in primary astrocytes; assay type: cell-based, mouse
Description: Oxygen consumption. […] Mito Stress assay was then performed with Seahorse XF Cell Mito Stress Test Kit (Agilent Technologies, #103015-100) following the manufacturer's manual. […] The assay medium (DEMEM with 10 mM Glucose, 1 mM pyruvate and 2 mM glutamine) was used during the assay. The OCR rate was normalized to cell number estimated using CyQUANT cell proliferation assay kit (Invitrogen, #C7026).

[9] = astrocytes activated 30 minutes with TNFα and IL-1β
[10] = astrocytes stimulated with TNFα and IL-1β

SMILES: O=C(Nc1ccccc1Cl)c1cnc2ccc(C3CCNCC3)cn12 [A38]
- NOD EAE clinical scores ([1]; administration during the progressive phase): ameliorated NOD EAE, as indicated by the reduced clinical scores
- astrocyte and microglial expression of transcriptional modules associated with CNS inflammation and neurodegeneration ([1]; progressive phase of NOD EAE): suppressed
- peripheral T-cell response ([1]; progressive phase of NOD EAE): no changes in the peripheral T-cell response were detected
- recruitment of pro-inflammatory monocytes to the CNS ([1]; progressive phase of NOD EAE): decreased recruitment
- microglial expression of Nos2 [2]: no effect
- microglial expression of Tnfa [2]: no effect
- TNFα production in astrocytes [3]: suppressed TNFα production; also recorded: highly efficient in down-modulating TNF-α production
- ACM neurotoxic activity [4]: decrease in neurotoxicity; also recorded: reduced ACM neurotoxic
- phosphorylation of AKT [5, 9]: suppressed
- phosphorylation of p85a, p55a [5, 9]: suppressed
- NF-κB activation (p65 phosphorylation and nuclear translocation) [5, 10]: did not suppress NF-κB activation
- S6 phosphorylation [5, 10]: suppressed S6 phosphorylation
- half-life [6]: > 5 h
- mitochondrial production of ROS [7]: decreased
- ATP-linked respiration [8]: decreased
- basal mitochondrial respiration [8]: decreased
- maximal mitochondrial respiration [8]: decreased
